In US9738634B2, “Heterocyclic amide compound and herbicide” (SYNGENTA PARTICIPATIONS AG, priority 2013, dated 2017):

Columns and labels:
Format in all cases: in vivo
corn = assay: Test Example 3: soil treatment, effect on crop; c: corn; conditions: soil treatment, treatment dosage 320 g/ha
Summary of the method: (§1)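 Crop and weed responses were judged three weeks after a uniform surface spray of the water-diluted emulsion at the given g/ha rate. Seeds sat beneath about 1.5 cm of sterilized diluvial soil, and boxes stood in a greenhouse at 25 to 30° C.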

barnyard grass [1] = assay: Test Example 3: weedkilling efficacy through soil treatment; F: barnyard grass; conditions: soil treatment, treatment dosage 320 g/ha
Summary of the method: as §1

transplanted rice = assay: Test Example 1: preemergent weed treatment in the submerged state, effect on crop; a: transplanted rice
Summary of the method: (§2)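 Emulsion diluted with water to the specified per-hectare dosage is applied onto flood water (4 cm) over alluvial soil on the sowing day, with barnyard grass, bulrush and pondweed seeded and rice (2.5-leaf) transplanted; plants grow at 25–30 °C and are rated at 3 weeks.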

green foxtail = assay: Test Example 3: weedkilling efficacy through soil treatment; E: green foxtail; conditions: soil treatment, treatment dosage 320 g/ha
Summary of the method: as §1

rapeseed = assay: Test Example 3: soil treatment, effect on crop; g: rapeseed; conditions: soil treatment, treatment dosage 320 g/ha
Summary of the method: as §1

directly sown rice = assay: Test Example 3: soil treatment, effect on crop; b: directly sown rice; conditions: soil treatment, treatment dosage 320 g/ha
Summary of the method: as §1

soybean = assay: Test Example 3: soil treatment, effect on crop; d: soybean; conditions: soil treatment, treatment dosage 320 g/ha
Summary of the method: as §1

barnyard grass [2] = assay: Test Example 2: weedkilling efficacy, growth period weed treatment in the submerged state; A: barnyard grass
Summary of the method: (§3)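 First, alluvial soil in pots is flooded to 4 cm and mixed seed is sown. Next, plants grow in a greenhouse at 25 to 30° C until the 1-2 leaf stage. Then diluted emulsion is applied onto the water surface at the given g/ha rate, and injury is assessed after 3 weeks.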

oval-leafed pondweed [3] = assay: Test Example 2: weedkilling efficacy, growth period weed treatment in the submerged state; C: oval-leafed pondweed
Summary of the method: as §3

Italian ryegrass = assay: Test Example 3: weedkilling efficacy through soil treatment; I: Italian ryegrass; conditions: soil treatment, treatment dosage 320 g/ha
Summary of the method: as §1

crabgrass = assay: Test Example 3: weedkilling efficacy through soil treatment; D: crabgrass; conditions: soil treatment, treatment dosage 320 g/ha
Summary of the method: as §1

common wind-grass = assay: Test Example 3: weedkilling efficacy through soil treatment; J: common wind-grass; conditions: soil treatment, treatment dosage 320 g/ha
Summary of the method: as §1

bulrush [4] = assay: Test Example 1: weedkilling efficacy, preemergent weed treatment in the submerged state; B: bulrush
Summary of the method: as §2

black-grass = assay: Test Example 3: weedkilling efficacy through soil treatment; H: black-grass; conditions: soil treatment, treatment dosage 320 g/ha
Summary of the method: as §1

catchweed = assay: Test Example 3: weedkilling efficacy through soil treatment; O: catchweed; conditions: soil treatment, treatment dosage 320 g/ha
Summary of the method: as §1

chickweed = assay: Test Example 3: weedkilling efficacy through soil treatment; N: chickweed; conditions: soil treatment, treatment dosage 320 g/ha
Summary of the method: as §1

beet = assay: Test Example 3: soil treatment, effect on crop; f: beet; conditions: soil treatment, treatment dosage 320 g/ha
Summary of the method: as §1

birds-eye speedwell = assay: Test Example 3: weedkilling efficacy through soil treatment; p: birds-eye speedwell; conditions: soil treatment, treatment dosage 320 g/ha
Summary of the method: as §1

Indian mallow = assay: Test Example 3: weedkilling efficacy through soil treatment; K: Indian mallow; conditions: soil treatment, treatment dosage 320 g/ha
Summary of the method: as §1

wild oat = assay: Test Example 3: weedkilling efficacy through soil treatment; G: wild oat; conditions: soil treatment, treatment dosage 320 g/ha
Summary of the method: as §1

oval-leafed pondweed [5] = assay: Test Example 1: weedkilling efficacy, preemergent weed treatment in the submerged state; C: oval-leafed pondweed
Summary of the method: as §2

wheat = assay: Test Example 3: soil treatment, effect on crop; e: wheat; conditions: soil treatment, treatment dosage 320 g/ha
Summary of the method: as §1

fig-leafed goosefoot = assay: Test Example 3: weedkilling efficacy through soil treatment; M: fig-leafed goosefoot; conditions: soil treatment, treatment dosage 320 g/ha
Summary of the method: as §1

bulrush [6] = assay: Test Example 2: weedkilling efficacy, growth period weed treatment in the submerged state; B: bulrush
Summary of the method: as §3

barnyard grass [7] = assay: Test Example 1: weedkilling efficacy, preemergent weed treatment in the submerged state; A: barnyard grass
Summary of the method: as §2

redroot pigweed = assay: Test Example 3: weedkilling efficacy through soil treatment; L: redroot pigweed; conditions: soil treatment, treatment dosage 320 g/ha
Summary of the method: as §1

| Structure (SMILES) | c: corn, effect on crop grade (corn) | F: barnyard grass, weedkilling efficacy grade (barnyard grass [1]) | a: transplanted rice, effect on crop grade (transplanted rice; treatment dosage 320 g/ha) | E: green foxtail, weedkilling efficacy grade (green foxtail) | g: rapeseed, effect on crop grade (rapeseed) | b: directly sown rice, effect on crop grade (directly sown rice) | d: soybean, effect on crop grade (soybean) | I: Italian ryegrass, weedkilling efficacy grade (Italian ryegrass) | D: crabgrass, weedkilling efficacy grade (crabgrass) | J: common wind-grass, weedkilling efficacy grade (common wind-grass) | H: black-grass, weedkilling efficacy grade (black-grass) | O: catchweed, weedkilling efficacy grade (catchweed) | N: chickweed, weedkilling efficacy grade (chickweed) | f: beet, effect on crop grade (beet) | P: birds-eye speedwell, weedkilling efficacy grade (birds-eye speedwell) | K: Indian mallow, weedkilling efficacy grade (Indian mallow) | G: wild oat, weedkilling efficacy grade (wild oat) | e: wheat, effect on crop grade (wheat) | M: fig-leafed goosefoot, weedkilling efficacy grade (fig-leafed goosefoot) | L: redroot pigweed, weedkilling efficacy grade (redroot pigweed) | further results |
| --- | --- | --- | --- | --- | --- | --- | --- | --- | --- | --- | --- | --- | --- | --- | --- | --- | --- | --- | --- | --- | --- |
| CC(C)(C(=O)Nc1ccc(F)cn1)N1COCN(c2ccccc2)C1=O [A-2-04] | 0 (weed kill ratio 5% or less (practically no effect)) | 3 (weed kill ratio 40% or more, less than 70%) | 0 (weed kill ratio 5% or less (practically no effect)) | 3 (weed kill ratio 40% or more, less than 70%) | 0 (weed kill ratio 5% or less (practically no effect)) | 0 (weed kill ratio 5% or less (practically no effect)) | 0 (weed kill ratio 5% or less (practically no effect)) | 3 (weed kill ratio 40% or more, less than 70%) | 3 (weed kill ratio 40% or more, less than 70%) | 4 (weed kill ratio 70% or more, less than 90%) | 2 (weed kill ratio 20% or more, less than 40%) | 0 (weed kill ratio 5% or less (practically no effect)) | 2 (weed kill ratio 20% or more, less than 40%) | 0 (weed kill ratio 5% or less (practically no effect)) | 0 (weed kill ratio 5% or less (practically no effect)) | 0 (weed kill ratio 5% or less (practically no effect)) | 0 (weed kill ratio 5% or less (practically no effect)) | 0 (weed kill ratio 5% or less (practically no effect)) | 0 (weed kill ratio 5% or less (practically no effect)) | 0 (weed kill ratio 5% or less (practically no effect)) | A (barnyard grass) weedkilling efficacy grade (barnyard grass [2]; treatment dosage 320 g/ha): 5 (weed kill ratio 90% or more, (practically complete withering)); C (oval-leafed pondweed) weedkilling efficacy grade (oval-leafed pondweed [3]; treatment dosage 320 g/ha): 4 (weed kill ratio 70% or more, less than 90%); B: bulrush, weed kill grade (bulrush [4]; treatment dosage 320 g/ha): 5 (weed kill ratio 90% or more, (practically complete withering)); C: oval-leafed pondweed, weed kill grade (oval-leafed pondweed [5]; treatment dosage 320 g/ha): 4 (weed kill ratio 70% or more, less than 90%); B (bulrush) weedkilling efficacy grade (bulrush [6]; treatment dosage 320 g/ha): 5 (weed kill ratio 90% or more, (practically complete withering)); A: barnyard grass, weed kill grade (barnyard grass [7]; treatment dosage 320 g/ha): 4 (weed kill ratio 70% or more, less than 90%) |
| CC(C)(C(=O)Nc1cc(F)cc(Cl)n1)N1COCN(c2ccccc2)C1=O [A-2-14] | 4 (weed kill ratio 70% or more, less than 90%) | 5 (weed kill ratio 90% or more, (practically complete withering)) | 3 (weed kill ratio 40% or more, less than 70%) | 5 (weed kill ratio 90% or more, (practically complete withering)) | 4 (weed kill ratio 70% or more, less than 90%) | 5 (weed kill ratio 90% or more, (practically complete withering)) | 4 (weed kill ratio 70% or more, less than 90%) | 5 (weed kill ratio 90% or more, (practically complete withering)) | 5 (weed kill ratio 90% or more, (practically complete withering)) | 5 (weed kill ratio 90% or more, (practically complete withering)) | 5 (weed kill ratio 90% or more, (practically complete withering)) | 5 (weed kill ratio 90% or more, (practically complete withering)) | 5 (weed kill ratio 90% or more, (practically complete withering)) | 4 (weed kill ratio 70% or more, less than 90%) | 5 (weed kill ratio 90% or more, (practically complete withering)) | 5 (weed kill ratio 90% or more, (practically complete withering)) | 5 (weed kill ratio 90% or more, (practically complete withering)) | 4 (weed kill ratio 70% or more, less than 90%) | 5 (weed kill ratio 90% or more, (practically complete withering)) | 5 (weed kill ratio 90% or more, (practically complete withering)) | A (barnyard grass) weedkilling efficacy grade (barnyard grass [2]; treatment dosage 320 g/ha): 5 (weed kill ratio 90% or more, (practically complete withering)); C (oval-leafed pondweed) weedkilling efficacy grade (oval-leafed pondweed [3]; treatment dosage 320 g/ha): 5 (weed kill ratio 90% or more, (practically complete withering)); B: bulrush, weed kill grade (bulrush [4]; treatment dosage 320 g/ha): 5 (weed kill ratio 90% or more, (practically complete withering)); C: oval-leafed pondweed, weed kill grade (oval-leafed pondweed [5]; treatment dosage 320 g/ha): 5 (weed kill ratio 90% or more, (practically complete withering)); B (bulrush) weedkilling efficacy grade (bulrush [6]; treatment dosage 320 g/ha): 5 (weed kill ratio 90% or more, (practically complete withering)); A: barnyard grass, weed kill grade (barnyard grass [7]; treatment dosage 320 g/ha): 5 (weed kill ratio 90% or more, (practically complete withering)) |
| CC(C)(C(=O)Nc1cc(Cl)cc(F)n1)N1COCN(c2ccccc2)C1=O [A-2-15] | 4 (weed kill ratio 70% or more, less than 90%) | 5 (weed kill ratio 90% or more, (practically complete withering)) |  | 5 (weed kill ratio 90% or more, (practically complete withering)) | 4 (weed kill ratio 70% or more, less than 90%) | 5 (weed kill ratio 90% or more, (practically complete withering)) | 3 (weed kill ratio 40% or more, less than 70%) | 5 (weed kill ratio 90% or more, (practically complete withering)) | 5 (weed kill ratio 90% or more, (practically complete withering)) | 5 (weed kill ratio 90% or more, (practically complete withering)) | 5 (weed kill ratio 90% or more, (practically complete withering)) | 5 (weed kill ratio 90% or more, (practically complete withering)) | 5 (weed kill ratio 90% or more, (practically complete withering)) | 3 (weed kill ratio 40% or more, less than 70%) | 5 (weed kill ratio 90% or more, (practically complete withering)) | 4 (weed kill ratio 70% or more, less than 90%) | 5 (weed kill ratio 90% or more, (practically complete withering)) | 4 (weed kill ratio 70% or more, less than 90%) | 4 (weed kill ratio 70% or more, less than 90%) | 4 (weed kill ratio 70% or more, less than 90%) | a: transplanted rice, effect on crop grade (transplanted rice; treatment dosage 280 g/ha): 4 (weed kill ratio 70% or more, less than 90%); A (barnyard grass) weedkilling efficacy grade (barnyard grass [2]; treatment dosage 280 g/ha): 5 (weed kill ratio 90% or more, (practically complete withering)); C (oval-leafed pondweed) weedkilling efficacy grade (oval-leafed pondweed [3]; treatment dosage 280 g/ha): 5 (weed kill ratio 90% or more, (practically complete withering)); B: bulrush, weed kill grade (bulrush [4]; treatment dosage 280 g/ha): 5 (weed kill ratio 90% or more, (practically complete withering)); C: oval-leafed pondweed, weed kill grade (oval-leafed pondweed [5]; treatment dosage 280 g/ha): 5 (weed kill ratio 90% or more, (practically complete withering)); B (bulrush) weedkilling efficacy grade (bulrush [6]; treatment dosage 280 g/ha): 5 (weed kill ratio 90% or more, (practically complete withering)); A: barnyard grass, weed kill grade (barnyard grass [7]; treatment dosage 280 g/ha): 5 (weed kill ratio 90% or more, (practically complete withering)) |
